Laboratory results from PMC4138103 (PLoS ONE, 2014).
Values joined by “and” are separate entries in the source; they are usually repeats but may differ in a detail not shown here. Identical values can stand only once.

Test system: Sprague-Dawley rats
Assay: Retinoid analyses in liver, serum and kidney
Assay type: in vivo, Rattus norvegicus
Details: males
Description: Retinoids in liver, serum, and kidney were analyzed according to Schmidt et al.. The polar retinoids 9-cis-retinoic acid (9-cis-RA), 13-cis-retinoic acid (13-cis-RA), 13-cis-4-oxo-retinoic acid (13-cis-4-o-RA), 9-cis-4-oxo-13,14-dihydro-retinoic acid (9-cis-4-o-13,14-dh-RA), all-trans retinoic acid (all-trans RA) and the apolar retinoids retinol and retinyl palmitate were extracted by a single liquid-extraction, separated from each other via solid-phase extraction using an aminopropyl phase, and then injected onto two different HPLC systems that were coupled with UV detection. […] The limits of detection (LOD) for all-trans RA and 9c-4o-13,14-dh-RA were 0.7 and 1.0 pmol/g tissue, and 0.3 and 0.6 pmol/ml serum, respectively. Retinol and retinyl palmitate were separated on a J'sphere ODS-H80 (4.6×150 mm, 4 µm particle size) obtained from YMC (Schermbeck, Germany), and were detected at 325 nm. The LOD for retinol and retinyl palmitate were 5.6 and 5.5 pmol/g tissue, and 4.2 and 4.2 pmol/ml serum, respectively.
Data were also analyzed using the BMD method, which is based on dose-response modeling of the full data set using a nested family of exponential and Hill models. The analyses were done on data of males and females combined, using sex as a covariate. […] In that case, different Critical Effect Doses (CEDs) and CEDs at the lowest bound of the confidence interval (CED-L) were generated for each sex. If no difference between sexes is detected, a CED and CED-Ls for the combined data is generated. However, this was also done if the curve fits are close, and separate analyses for males and females were then performed manually. CEDs and CED-Ls were calculated at the predefined Critical Effect Size (CES) of 5% (EFSA standard) or 10%.

[1] = total dose 100 mg/kg bw, group mean, N=5
[2] = total dose 300 mg/kg bw, group mean, N=5
[3] = total dose 1000 mg/kg bw, group mean, N=5
[4] = total dose 1700 mg/kg bw, group mean, N=5
[5] = adipose tissue concentration based
[6] = controls vs high dose, fitted model

## Clc1cc(Cl)c(-c2cc(Cl)c(Cl)c(Cl)c2Cl)cc1Cl [PCB 180, 2,2′,3′,4,4′,5,5′-heptachlorobiphenyl]
Total dose 100 mg/kg bw, Liver
  Liver Retinyl esters: 84.5 pmol/mL
Total dose 100 mg/kg bw, Liver, n=4
  Liver Retinol: 1.75 pmol/mL
[1]
  Kidney All-trans RA: 37.0 pmol
  Kidney Retinol: 17.3 nmol
  Kidney Retinyl esters: 8.84 nmol
  Liver All-trans RA: 744 pmol
  Liver Retinol: 0.26 µmol
  Liver Retinyl esters: 10.3 µmol
Total dose 100 mg/kg bw, n=3
  Liver 9-cis-4o-13,14-dh-RA: 22.7 pmol/g
Total dose 100 mg/kg bw, n=4
  Serum Retinol: 1.75 pmol/mL
Total dose 300 mg/kg bw
  Kidney All-trans RA: 35.9 pmol/g
  Kidney Retinol: 17.5 nmol/g
  Kidney Retinyl esters: 13.9 nmol/g
  Liver All-trans RA: 48.1 pmol/g
  Liver Retinol: 17.4 nmol/g
  Liver Retinyl esters: 0.56 µmol/g
  Serum Retinol: 1.64 pmol/mL
  Serum Retinyl esters: 67.8 pmol/mL
Total dose 300 mg/kg bw, Liver
  Liver Retinol: 1.64 pmol/mL
  Liver Retinyl esters: 67.8 pmol/mL
[2]
  Kidney All-trans RA: 37.8 pmol
  Kidney Retinol: 18.2 nmol
  Kidney Retinyl esters: 14.5 nmol
  Liver All-trans RA: 863 pmol
  Liver Retinol: 0.31 µmol
  Liver Retinyl esters: 10.1 µmol
Total dose 300 mg/kg bw, n=4
  Liver 9-cis-4o-13,14-dh-RA: 20.9 pmol/g
[3]
  Kidney All-trans RA: 35.9 pmol
  Kidney Retinol: 24.5 nmol
  Kidney Retinyl esters: 24.5 nmol
  Liver 9-cis-4o-13,14-dh RA: 455 pmol
  Liver All-trans RA: 1077 pmol
  Liver Retinol: 0.27 µmol
  Liver Retinyl esters: 8.2 µmol
[4]
  Kidney All-trans RA: 32.4 pmol
  Kidney Retinol: 23.3 nmol
  Kidney Retinyl esters: 25.2 nmol
  Liver All-trans RA: 1178 pmol
  Liver Retinol: 0.23 µmol
  Liver Retinyl esters: 6.4 µmol
CES 5%, total dose based
  Kidney retinol amount, CED: 206 mg/kg bw
  Kidney retinol amount, CED-L: 147 mg/kg bw
  Kidney retinol concentration, CED: 200 mg/kg bw
  Kidney retinol concentration, CED-L: 149 mg/kg bw
  Kidney retinyl esters amount, CED: 9.14 mg/kg bw
  Kidney retinyl esters amount, CED-L: 3.10 mg/kg bw
  Kidney retinyl esters concentration, CED: 9.9 mg/kg bw and 9.88 mg/kg bw
  Kidney retinyl esters concentration, CED-L: 3.35 mg/kg bw
  Liver all-trans RA amount, CED: 21.7 mg/kg bw
  Liver all-trans RA amount, CED-L: 9.07 mg/kg bw
  Liver all-trans RA concentration, CED: 450 mg/kg bw
  Liver all-trans RA concentration, CED-L: 268 mg/kg bw
  Liver retinol amount, CED: 437 mg/kg bw
  Liver retinol amount, CED-L: 261 mg/kg bw
  Liver retinol concentration, CED: 32 mg/kg bw and 31.9 mg/kg bw
  Liver retinol concentration, CED-L: 6.10 mg/kg bw
  Liver retinyl esters amount, CED: 145 mg/kg bw
  Liver retinyl esters amount, CED-L: 123 mg/kg bw
  Liver retinyl esters concentration, CED: 22 mg/kg bw and 21.5 mg/kg bw
  Liver retinyl esters concentration, CED-L: 12.9 mg/kg bw
CES 10%, total dose based
  Kidney retinol amount, CED: 402 mg/kg bw
  Kidney retinol amount, CED-L: 288 mg/kg bw
  Kidney retinol concentration, CED: 390 mg/kg bw
  Kidney retinol concentration, CED-L: 291 mg/kg bw
  Kidney retinyl esters amount, CED: 18.5 mg/kg bw
  Kidney retinyl esters amount, CED-L: 6.26 mg/kg bw
  Kidney retinyl esters concentration, CED: 20 mg/kg bw
  Kidney retinyl esters concentration, CED-L: 6.77 mg/kg bw
  Liver all-trans RA amount, CED: 44.7 mg/kg bw
  Liver all-trans RA amount, CED-L: 18.7 mg/kg bw
  Liver all-trans RA concentration, CED: 879 mg/kg bw
  Liver all-trans RA concentration, CED-L: 523 mg/kg bw
  Liver retinol amount, CED: 897 mg/kg bw
  Liver retinol amount, CED-L: 536 mg/kg bw
  Liver retinol concentration, CED: 56 mg/kg bw
  Liver retinol concentration, CED-L: 10.4 mg/kg bw
  Liver retinyl esters amount, CED: 296 mg/kg bw
  Liver retinyl esters amount, CED-L: 252 mg/kg bw
  Liver retinyl esters concentration, CED: 43.9 mg/kg bw
  Liver retinyl esters concentration, CED-L: 26.6 mg/kg bw
[5]
  Kidney retinol concentration, CED: 863 µg/g lipid
  Kidney retinyl ester concentration, CED: 42 µg/g lipid
  Liver all-trans RA concentration, CED: 1920 µg/g lipid
  Liver retinol concentration, CED: 31 µg/g lipid
  Liver retinol, CED-L: 18800 ng/g lipid
  Liver retinyl ester concentration, CED: 108 µg/g lipid
[6]
  Kidney retinol concentration, Maximum response: 51.5%
  Liver all-trans RA concentration, Maximum response: 20% and 20.3%
Total dose 10 mg/kg bw, group mean, n=3
  Liver 9-cis-4o-13,14-dh RA: 163 pmol
Total dose 30 mg/kg bw, n=1
  Liver 9-cis-4o-13,14-dh RA: 389b pmol
  Liver 9-cis-4o-13,14-dh-RA: 30.8 pmol·days/g
Total dose 100 mg/kg bw, group mean, n=3
  Liver 9-cis-4o-13,14-dh RA: 434 pmol
Total dose 300 mg/kg bw, group mean, n=4
  Liver 9-cis-4o-13,14-dh RA: 403 pmol
Total dose 1700 mg/kg bw, group mean, n=4, one exceptionally high value excluded as an outlier
  Liver 9-cis-4o-13,14-dh RA: 454 pmol
